The test system of test [1] is NiV-mediated fusion (HeLa cells expressing NiV F and G, U373 target cells).
Test [2] deals with HeV-mediated fusion (HeLa cells expressing HeV F and G, U373 target cells).

`CC[C@H](C)[C@H](NC(=O)[C@H](Cc1ccc(O)cc1)NC(=O)[C@H](CC(=O)O)NC(=O)[C@H](CCCCN)NC(=O)[C@H](CO)NC(=O)[C@H](CCC(N)=O)NC(=O)[C@H](CCC(N)=O)NC(=O)[C@H](CC(C)C)NC(=O)[C@H](CO)NC(=O)[C@H](CCC(N)=O)NC(=O)[C@H](CC(N)=O)NC(=O)[C@H](CCSC)NC(=O)[C@H](CO)NC(=O)[C@H](CO)NC(=O)[C@@H](NC(=O)[C@H](CCC(N)=O)NC(=O)[C@H](CO)NC(=O)[C@H](CO)NC(=O)[C@@H](NC(=O)[C@H](CC(=O)O)NC(=O)[C@@H](NC(=O)[C@H](CCCCN)NC(=O)[C@H](CC(=O)O)NC(=O)[C@@H](NC(=O)[C@H](Cc1ccccc1)NC(=O)[C@@H](NC(=O)[C@@H]1CCCN1C(=O)[C@@H]1CCCN1)C(C)C)[C@@H](C)O)C(C)C)[C@@H](C)CC)[C@@H](C)CC)C(=O)N[C@@H](CCCCN)C(=O)N[C@@H](CCC(=O)O)C(=O)N[C@@H](C)C(=O)N[C@@H](CCC(N)=O)C(=O)N[C@@H](CCCNC(=N)N)C(=O)N[C@@H](CC(C)C)C(=O)N[C@@H](CC(C)C)C(=O)N[C@@H](CC(=O)O)C(=O)N[C@H](C(=O)N[C@H](C(=O)N[C@@H](CC(N)=O)C(=O)N1CCC[C@H]1C(=O)N[C@@H](CO)C(=O)N[C@@H](CC(C)C)C(=O)O)C(C)C)[C@@H](C)O` [NiV FC1]: in test [1], the concentration for half-maximal inhibition (IC50) was in the range of 5.2 to 5.8 nM and the “Inhibition of NiV-mediated fusion (in words)” value is “completely inhibitory in the nM range”. Besides, in test [2], the IC50 was 5.2 to 5.8 nM and the “Inhibition of HeV-mediated fusion (in words)” value is reported as “completely inhibitory in the nM range”.

The values are drawn from patent US8114410B2, “Composition and methods for the inhibition of membrane fusion by paramyxoviruses” (priority 2001, dated 2012).
